# Measurements published in ChEMBL document CHEMBL3608289, “Miltirone Is a Dual Inhibitor of P-Glycoprotein and Cell Growth in Doxorubicin-Resistant HepG2 Cells” (J Nat Prod, 2015).
# Activity calls are given as the source filed them. The rule behind the calls is not given here.
# Legend:
# HepG2 [1] = experiment: Induction of apoptosis in human HepG2 cells assessed as increase in PARP cleavage at 25 uM after 24 hrs by Western blotting; format: functional, cell-based
# HepG2 [2] = experiment: Effect on nonphosphorylated ERK1/ERK2 level in human HepG2 cells at 25 uM by Western blot analysis; format: ADME, cell-based; settings: hepg2, 25 µM
# HepG2 [3] = experiment: Increase of SAPK/JNK phosphorylation in human doxorubicin-resistant HepG2 cells expressing p-gp at 25 uM by Western blot analysis; format: cell-based
# HepG2 [4] = experiment: Effect on nonphosphorylated p38 MAPK level in human HepG2 cells at 25 uM by Western blot analysis; format: ADME, cell-based; settings: hepg2, 25 µM
# [5] = molecular target: T1, Mitogen-activated protein kinase; ERK1/ERK2 (Homo sapiens) (UniProt P27361+P28482); experiment: Inhibition of ERK1/2 phosphorylation in human HepG2 cells at 25 uM by Western blot analysis; format: cell-based
# T1 sequence (P27361 whole entry, looked up): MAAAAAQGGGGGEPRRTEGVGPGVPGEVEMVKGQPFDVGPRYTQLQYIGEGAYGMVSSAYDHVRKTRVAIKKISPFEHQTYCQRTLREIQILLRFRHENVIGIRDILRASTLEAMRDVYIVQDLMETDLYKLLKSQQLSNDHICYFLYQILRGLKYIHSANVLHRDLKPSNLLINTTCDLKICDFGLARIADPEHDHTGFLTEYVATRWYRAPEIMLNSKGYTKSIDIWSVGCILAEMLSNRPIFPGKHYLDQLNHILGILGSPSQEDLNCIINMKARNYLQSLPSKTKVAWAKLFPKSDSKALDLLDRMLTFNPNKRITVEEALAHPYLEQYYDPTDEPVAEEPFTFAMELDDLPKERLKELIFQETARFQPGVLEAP
# T1 sequence (P28482 whole entry, looked up): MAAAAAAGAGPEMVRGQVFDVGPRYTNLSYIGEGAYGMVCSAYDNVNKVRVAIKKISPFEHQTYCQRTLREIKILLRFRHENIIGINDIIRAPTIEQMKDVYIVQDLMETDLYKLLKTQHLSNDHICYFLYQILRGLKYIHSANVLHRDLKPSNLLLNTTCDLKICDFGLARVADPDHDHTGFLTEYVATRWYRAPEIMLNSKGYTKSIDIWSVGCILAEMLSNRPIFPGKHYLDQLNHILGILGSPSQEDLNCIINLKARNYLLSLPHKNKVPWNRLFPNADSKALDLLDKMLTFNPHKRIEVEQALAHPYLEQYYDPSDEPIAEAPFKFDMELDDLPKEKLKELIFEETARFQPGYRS
# HepG2 [6] = experiment: Effect on nonphosphorylated ERK1/ERK2 level in human doxorubicin-resistant HepG2 cells expressing p-gp at 25 uM by Western blot analysis; format: ADME, cell-based; settings: hepg2, 25 µM
# [7] = molecular target: T2, MAP kinase p38 (Homo sapiens) (UniProt O15264+Q15759+Q16539+P53778); experiment: Inhibition of p38 MAPK phosphorylation in human HepG2 cells at 25 uM by Western blot analysis; format: cell-based
# HepG2 [8] = experiment: Induction of apoptosis in human doxorubicin-resistant HepG2 cells expressing p-gp assessed as activation of caspase-3/8/9 at 25 uM after 24 hrs by Western blotting; format: functional, cell-based
# HepG2 [9] = experiment: Induction of apoptosis in human doxorubicin-resistant HepG2 cells expressing p-gp assessed as increase in PARP cleavage at 25 uM after 24 hrs by Western blotting; format: functional, cell-based
# HepG2 [10] = experiment: Effect on nonphosphorylated SAPK/JNK level in human HepG2 cells at 25 uM by Western blot analysis; format: ADME, cell-based; settings: hepg2, 25 µM
# HepG2 [11] = experiment: Effect on nonphosphorylated SAPK/JNK level in human doxorubicin-resistant HepG2 cells expressing p-gp at 25 uM by Western blot analysis; format: ADME, cell-based; settings: hepg2, 25 µM
# [12] = molecular target: T1, Mitogen-activated protein kinase; ERK1/ERK2 (Homo sapiens); experiment: Inhibition of ERK1/2 phosphorylation in human doxorubicin-resistant HepG2 cells expressing p-gp at 25 uM by Western blot analysis; format: cell-based
# HepG2 [13] = experiment: Effect on nonphosphorylated p38 MAPK level in human doxorubicin-resistant HepG2 cells expressing p-gp at 25 uM by Western blot analysis; format: ADME, cell-based; settings: hepg2, 25 µM
# HepG2 [14] = experiment: Induction of apoptosis in human HepG2 cells assessed as activation of caspase-3/8/9 at 25 uM after 24 hrs by Western blotting; format: functional, cell-based
# [15] = molecular target: T2, MAP kinase p38 (Homo sapiens); experiment: Inhibition of p38 MAPK phosphorylation in human doxorubicin-resistant HepG2 cells expressing p-gp at 25 uM by Western blot analysis; format: cell-based
# HepG2 [16] = experiment: Increase of SAPK/JNK phosphorylation in human HepG2 cells at 25 uM by Western blot analysis; format: cell-based
smiles,measurement,setting,value
Cc1cccc2c3c(ccc12)C1=C(C(=O)C3=O)[C@@H](C)CO1 [DIHYDROTANSHINONE I],Activity,HepG2 [1],Active
same,Activity,HepG2 [2],Non-toxic
same,Activity,HepG2 [3],inactive
same,Activity,HepG2 [4],Non-toxic
same,inhibition,[5],inactive
same,Activity,HepG2 [6],Non-toxic
same,inhibition,[7],Active
same,Activity,HepG2 [8],Active
same,Activity,HepG2 [9],Active
same,Activity,HepG2 [10],Non-toxic
same,Activity,HepG2 [11],Non-toxic
same,inhibition,[12],Active
same,Activity,HepG2 [13],Non-toxic
same,Activity,HepG2 [14],Active
same,inhibition,[15],Active
same,Activity,HepG2 [16],Active
